Experiments:
Experiment in all cases: relative viability (nuclei count vs DMSO), 5 days (fraction); higher = more cells survive
BMX-IN-1 + Navitoclax = compound: C=CC(=O)Nc1cc(-n2c(=O)ccc3cnc4ccc(-c5ccc(NS(C)(=O)=O)cc5)cc4c32)ccc1C [BMX-IN-1] + CC1(C)CCC(c2ccc(Cl)cc2)=C(CN2CCN(c3ccc(C(=O)NS(=O)(=O)c4ccc(N[C@H](CCN5CCOCC5)CSc5ccccc5)c(S(=O)(=O)C(F)(F)F)c4)cc3)CC2)C1 [Navitoclax] (partner 0.5 µM)
Outline: (§1)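 One day after seeding in 1536-well plates, lung cancer cell lines were dosed by pin tool. Dosing was either single-drug or a fixed anchor-drug dose plus five library-drug doses (not always all listed) in √10 steps. After 5 days, nuclei were stained in one fix-and-stain step and counted on 4× images, and relative viability is the nuclei count of treated wells over that of vehicle wells, given as the median of duplicate plates.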

BMX-IN-1 + Tozasertib = compound: C=CC(=O)Nc1cc(-n2c(=O)ccc3cnc4ccc(-c5ccc(NS(C)(=O)=O)cc5)cc4c32)ccc1C [BMX-IN-1] + Cc1cc(Nc2cc(N3CCN(C)CC3)nc(Sc3ccc(NC(=O)C4CC4)cc3)n2)n[nH]1 [Tozasertib] (partner 0.1 µM)
Outline: as §1

PAC-1 + Palbociclib = compound: C=CCc1cccc(/C=N/NC(=O)CN2CCN(Cc3ccccc3)CC2)c1O [PAC-1] + CC(=O)c1c(C)c2cnc(Nc3ccc(N4CCNCC4)cn3)nc2n(C2CCCC2)c1=O [Palbociclib] (partner 0.5 µM)
Outline: as §1

PAC-1 + Alpelisib = compound: C=CCc1cccc(/C=N/NC(=O)CN2CCN(Cc3ccccc3)CC2)c1O [PAC-1] + Cc1nc(NC(=O)N2CCC[C@H]2C(N)=O)sc1-c1ccnc(C(C)(C)C(F)(F)F)c1 [Alpelisib] (partner 2 µM)
Outline: as §1

PAC-1 + Decitabine = compound: C=CCc1cccc(/C=N/NC(=O)CN2CCN(Cc3ccccc3)CC2)c1O [PAC-1] + Nc1ncn([C@H]2C[C@H](O)[C@@H](CO)O2)c(=O)n1 [Decitabine] (partner 2 µM)
Outline: as §1

Cell Line	relative viability (BMX-IN-1 + Navitoclax; first compound 0.02 µM)	relative viability (BMX-IN-1 + Navitoclax; first compound 0.2 µM)	relative viability (BMX-IN-1 + Navitoclax; first compound 0.6325 µM)	relative viability (BMX-IN-1 + Navitoclax; first compound 2 µM)	relative viability (BMX-IN-1 + Tozasertib; first compound 0.02 µM)	relative viability (BMX-IN-1 + Tozasertib; first compound 0.2 µM)	relative viability (BMX-IN-1 + Tozasertib; first compound 0.6325 µM)	relative viability (BMX-IN-1 + Tozasertib; first compound 2 µM)	relative viability (PAC-1 + Palbociclib; first compound 0.02 µM)	relative viability (PAC-1 + Palbociclib; first compound 0.06325 µM)	relative viability (PAC-1 + Palbociclib; first compound 0.2 µM)	relative viability (PAC-1 + Palbociclib; first compound 2 µM)	relative viability (PAC-1 + Alpelisib; first compound 0.02 µM)	relative viability (PAC-1 + Alpelisib; first compound 0.06325 µM)	relative viability (PAC-1 + Alpelisib; first compound 0.2 µM)	relative viability (PAC-1 + Alpelisib; first compound 2 µM)	relative viability (PAC-1 + Decitabine; first compound 0.02 µM)	relative viability (PAC-1 + Decitabine; first compound 0.06325 µM)	relative viability (PAC-1 + Decitabine; first compound 0.2 µM)	relative viability (PAC-1 + Decitabine; first compound 2 µM)
NCI-H2085	1.23	1.31	1.2	1.07	0.873	0.754	0.794	0.734	0.487	0.462	0.428	0.504	0.949	0.944	0.921	0.916	0.554	0.504	0.572	0.492
NCI-H2087	1.03	1.18	1.01	1.08	0.244	0.24	0.344	0.263	0.241	0.241	0.285	0.214	1.07	1.02	1	1.1	0.303	0.305	0.233	0.28
NCI-H2126	0.836	0.945	0.876	0.907	1.03	0.947	0.867	0.829	0.335	0.369	0.38	0.341	0.756	0.729	0.717	0.703	0.589	0.584	0.541	0.612
NCI-H2170	0.742	0.634	0.689	0.623	0.771	0.779	0.625	0.777	0.417	0.39	0.376	0.343	0.746	0.859	0.752	0.7	0.477	0.493	0.42	0.453
NCI-H2347	0.978	0.887	0.785	0.871	0.518	0.471	0.585	0.537	0.499	0.435	0.477	0.414	1.08	1.13	0.992	1.05	0.637	0.598	0.606	0.621
NCI-H2405	0.957	0.846	0.915	0.836	0.808	0.76	0.861	0.747	0.53	0.502	0.502	0.509	0.811	0.9	0.774	0.873	0.759	0.821	0.707	0.765

Source: the supplement of paper PMC10307832
